Test results from patent US9309304B2, “Glycation cross-link breakers to increase resistance to enzymatic degradation” (NEW YORK SOCIETY FOR THE RUPTURED AND CRIPPLED MAINTAINING …, priority 2012, dated 2016).

Experiments:
collagenase = test: CEMKATS test of Alagebrium-treated 7-day glycated tendon fibers (Example 6); type: biochemical; conditions: 15 mM Alagebrium 12 hours
Description: 7-day glycated (cross-linked) tendon fibers are immersed for 12 hours in a solution of 15 mM Alagebrium dissolved in PBS at a temperature ranging from about 4° C. to 37° C. The fibers are removed from the solution, rinsed in PBS, and then soaked in fresh PBS for 15 minutes. After this soak, the fibers are removed from the PBS bath, rinsed with fresh PBS. The visible PBS is blotted off and the fibers are interfaced with the CEMKATS system. Mechanical strain is applied as described in Example 1. The fiber reaches a peak stress during loading and subsequently relaxes to an equilibrium stress. Once the specimen reaches equilibrium, collagenase would be added. The resulting change in load would be observed and recorded (which would be converted post-hoc to stress).

[1] = AGE cross-links in treated graft tissue by FTIR spectrum
Description: For an ACL reconstruction, a bone-patellar tendon-bone graft (other eligible grafts include hamstring tendon) is harvested from a cadaveric donor per standard collection procedure. Before freezing, the graft tissue is immersed in a sterile filtered isotonic buffered saline solution containing Alagebrium at a concentration of 0.1 mM for 8 hours at a temperature of ranging from about 4° C. to 37° C. Following incubation with the cross-link breaking reagent, the specimen is rinsed with sterile isotonic buffered saline and then is immersed in a rinsing fluid, such as sterile isotonic buffered saline, with a volume of at least 10 times greater than the estimated volume of the specimen. The specimen remains immersed in the rinse fluid for 30 minutes. The rinsing and immersion step is repeated twice more with fresh rinse solution each time. The tissue specimen is then removed from the fluid, excess liquid is allowed to drain, any visible fluid is gently blotted off with sterile gauze, and is then frozen as per standard procedure. For an ACL reconstruction, a bone-patellar tendon-bone graft (other eligible grafts include hamstring tendon) is harvested from the patient as per standard collecting procedure. Before use, the graft tissue is wrapped in sterile gauze and is soaked in a sterile filtered isotonic buffered saline solution containing Alagebrium at a concentration of 100 mM for 15 minutes at a temperature ranging from about 4° C. to 37° C. Following incubation with the cross-link breaking reagent, the specimen is unwrapped, rinsed with sterile istonic buffered saline and then is wrapped again with sterile gauze and immersed in a rinsing fluid, such as sterile isotonic buffered saline, with a volume of at least 10 times greater than the estimated volume of the specimen. The specimen remains immersed in the rinse fluid for 15 minutes. The tissue specimen is then removed from the fluid, unwrapped, excess liquid is allowed to drain, any visible fluid is gently blotted off with sterile gauze, and then the graft is utilized as per standard procedure. […]

[2] = Randomized control trial of treated grafts for ACL reconstruction; type: in vivo; conditions: for relative risk of negative outcomes (Lachman test, pivot-shift test, Drawer test): 6 and 12 months post-surgery
Description: For an ACL reconstruction, a bone-patellar tendon-bone graft (other eligible grafts include hamstring tendon) is harvested from a cadaveric donor per standard collection procedure. Before freezing, the graft tissue is immersed in a sterile filtered isotonic buffered saline solution containing Alagebrium at a concentration of 0.1 mM for 8 hours at a temperature of ranging from about 4° C. to 37° C. Following incubation with the cross-link breaking reagent, the specimen is rinsed with sterile isotonic buffered saline and then is immersed in a rinsing fluid, such as sterile isotonic buffered saline, with a volume of at least 10 times greater than the estimated volume of the specimen. The specimen remains immersed in the rinse fluid for 30 minutes. The rinsing and immersion step is repeated twice more with fresh rinse solution each time. The tissue specimen is then removed from the fluid, excess liquid is allowed to drain, any visible fluid is gently blotted off with sterile gauze, and is then frozen as per standard procedure. […] For an ACL reconstruction, a bone-patellar tendon-bone graft (other eligible grafts include hamstring tendon) is harvested from the patient as per standard collecting procedure. Before use, the graft tissue is wrapped in sterile gauze and is soaked in a sterile filtered isotonic buffered saline solution containing Alagebrium at a concentration of 100 mM for 15 minutes at a temperature ranging from about 4° C. to 37° C. Following incubation with the cross-link breaking reagent, the specimen is unwrapped, rinsed with sterile istonic buffered saline and then is wrapped again with sterile gauze and immersed in a rinsing fluid, such as sterile isotonic buffered saline, with a volume of at least 10 times greater than the estimated volume of the specimen. The specimen remains immersed in the rinse fluid for 15 minutes. The tissue specimen is then removed from the fluid, unwrapped, excess liquid is allowed to drain, any visible fluid is gently blotted off with sterile gauze, and then the graft is utilized as per standard procedure.

[3] = Relative fluorescence of solubilized fibers; type: physicochemical, rat; conditions: 7 days of 0.2 M ribose exposure, about 460 nm
Description: Ribose incorporation into fibers over time was assessed by fluorescence of solubilized fibers following 0 to 10 days of incubation (Verzijl et al. 2002). Fibers were incubated in 0.2 M ribose solution (solution was exchanged with fresh ribose solution at day 3) and sample fibers were removed daily, rinsed in PBS, and then stored at 4° C. until the end of the time course. Fibers were weighed, then dissolved at 60° C. in a 1:20 dilution of papain (Carica Papaya, Roche Diagnostics, Indianapolis, Ind.) in buffer per the commercial protocol at a concentration of 1 mg tendon per 50 uL of papain solution. Relative fluorescence was measured at about 460 nm using a spectrophotometer (340 ATTC, Tecan US, Chapel Hill, N.C.) as reported by Verzijl et al. 2002. Maximum fluorescence was estimated from measurements of fibers incubated in ribose for 5 weeks.

[4] = cadaveric bone-patellar tendon-bone graft, 0.1 mM for 8 hours

Structure (SMILES) | EMK function values versus cross-linked control specimens (collagenase; higher strain (above about 3%)) | EMK function values versus cross-linked control specimens (collagenase; low strain (less than about 1.25%)) | amounts of AGE cross-links (AGE associated absorption peak, FTIR) ([1]; autologous bone-patellar tendon-bone graft, 100 mM for 15 minutes) | amounts of AGE cross-links (AGE associated absorption peak, FTIR) [1, 4] | stiffness of treated specimen [1, 4] | surgical outcome of ACL reconstruction ([2]; operating room treated autograft, 100 mM for 15 minutes) | surgical outcome of ACL reconstruction ([2]; tissue bank treated graft, 0.1 mM for 8 hours) | relative risk of negative outcomes (Lachman test, pivot-shift test, Drawer test) ([2]; versus placebo-treated grafts, operating room treated autograft) | relative risk of negative outcomes (Lachman test, pivot-shift test, Drawer test) ([2]; versus untreated grafts, tissue bank treated graft) | relative fluorescence of solubilized rat tail tendon [3]
Cc1sc[n+](CC(=O)c2ccccc2)c1C.[Cl-] [Alagebrium, 3-phenacyl-4,5-dimethylthiazolium chloride] | higher value for the control specimens than the Alagebrium-treated specimens | lower for controls than Alagebrium-treated specimens | significantly decreased amounts of AGE cross-links | significantly decreased amounts of AGE cross-links | less stiff after treatment | improved surgical outcome | improved surgical outcome | lower relative risk | lower relative risk | –
O=C[C@H](O)[C@H](O)[C@H](O)CO [ribose, D-Ribose] | – | – | – | – | – | – | – | – | – | significantly increased
